In paper PMC10135033, “Sulfonamidoboronic Acids as “Cross-Class” Inhibitors of an Expanded-Spectrum Class C Cephalosporinase, ADC-33, and a Class D Carbapenemase, OXA-24/40: Strategic Compound Design to Combat Resistance in Acinetobacter baumannii” (Antibiotics, 2023):
Read-outs that look alike come from different tables or passages of the source.

What was measured:
Format in all cases: cell-based
[1] = tested on: A. baumannii ATCC 17978 native ADC KO, ADC-33 pQF1266; assay: Antimicrobial susceptibility testing, broth microdilution; settings: Acinetobacter baumannii
Method: (§1) The inhibitory effects of both compounds were tested against ADC-33 and OXA-24/-40 in A. baumannii, their native host. ATCC 17978, with its intrinsic chromosomal ADC knocked out (intrinsic OXA still present), was used in these experiments. In this isolate, the ADC MICs were not lowered by the inhibitors as much as they were against the E. coli background (Table 4).
Plasmid pBCSK- containing the blaADC-33 gene was digested with PvuII, which released the blaADC-33 gene, along with the lac promoter, which drives expression. This PvuII fragment was cloned into the SmaI site of the pQF1266 plasmid.
(§2) pWH1266 is a vector that replicates in A. baumannii, and the […] pWH1266 construct was generated as follows. The TEM gene was removed using inverse PCR, and an Xba1 site was engineered into the vector. blaOXA-24/40 and its upstream XerC/XerD were amplified from strain NM55. The amplified gene was cloned into the Xba1 site of the altered pWH1266 vector. The construct was confirmed using PCR and sequencing. Both blaADC-33 pQF1266 and […] pWH1266 were then expressed in A. baumannii ATCC 17978 that had the intrinsic chromosomal ADC gene knocked out.
(§3) The chromosomal blaADC-51 gene in ATCC 17978 was deleted and replaced with an apramycin resistance cassette using the recombineering method described by Tucker et al.. Primers used for this deletion were: Del AmpC-apra.For: […]; and Del AmpC-apra.Rev: […]. The correct deletion mutant was confirmed using PCR and sequencing.
(§4) Testing of susceptibility to standard antibiotics was performed with broth microdilution according to CLSI guidelines. MICs for CAZ, CTX, FEP, and IMI were determined using cation-adjusted Mueller–Hinton broth according to CLSI methods, and CR167 or 6b was used at a fixed concentration of 10 mg/L. All MICs were interpreted according to the 2022 Clinical and Laboratory Standards Institute (CLSI) guidelines.

[2] = tested on: A. baumannii ATCC 17978 native ADC KO, OXA-24 pWH1266; assay: as above; settings: Acinetobacter baumannii
Method: as §1, §2, §3, §4

[3] = tested on: clinical A. baumannii isolate PR474 (OXA-23, OXA-24, OXA-65, ADC-218); assay: Antimicrobial susceptibility testing, clinical isolate, broth microdilution; settings: Acinetobacter baumannii
Method: (§5) Clinical A. baumannii isolates containing ADC-33 or OXA-24/-40 in combination with various other well-defined β-lactamases were also tested against CR167 and 6b (Table 5).
(§6) The clinical A. baumannii isolates used to test the β-lactamase inhibitors were selected from a previously well-characterized collection in our lab. They were chosen as they had either ADC-33 and/or OXA-24 in combination with other known β-lactamases (for specific combinations, see Table 5).
as §4

[4] = tested on: clinical A. baumannii isolate PR396 (OXA-82, ADC-33); assay: as above; settings: Acinetobacter baumannii, inhibitor at 10 mg/L
Method: as §5, §6, §4

[5] = tested on: clinical A. baumannii isolate PR408 (OXA-24, OXA-71, ADC-212); assay: as above; settings: Acinetobacter baumannii
Method: as §5, §6, §4

[6] = tested on: clinical A. baumannii isolate PR378 (OXA-24, OXA-65, TEM-1); assay: as above; settings: Acinetobacter baumannii
Method: as §5, §6, §4

[7] = tested on: clinical A. baumannii isolate PR462 (OXA-24, OXA-65, ADC-214); assay: as above; settings: Acinetobacter baumannii, inhibitor at 10 mg/L
Method: as §5, §6, §4

[8] = tested on: clinical A. baumannii isolate PR323 (OXA-24, OXA-65, ADC-218); assay: as above; settings: Acinetobacter baumannii
Method: as §5, §6, §4

[9] = tested on: clinical A. baumannii isolate PR328 (OXA-23, OXA-82, ADC-33); assay: as above; settings: Acinetobacter baumannii
Method: as §5, §6, §4

[10] = tested on: E. coli DH10B, ADC-33 in pBCSK-; assay: Antimicrobial susceptibility testing, broth microdilution; settings: Escherichia coli
Method: (§7) Based upon the inhibitor kinetics (Ki determinations), CR167 and the sulfonamidoboronic acid 6b were tested against E. coli strains expressing ADC-7 and ADC-33 cloned into pBCSK- (DH10B) (Table 3).
(§8) blaADC-7 pBCSK- and blaADC-33 pBCSK- were cloned and expressed in E. coli DH10B cells as previously described.
as §4

[11] = tested on: E. coli DH10B, ADC-7 in pBCSK-; assay: as above; settings: Escherichia coli
Method: as §7, §8, §4

[12] = ATCC17978, read-out: MIC of CAZ with BLI
[13] = ATCC17978, read-out: MIC of CTX with BLI
[14] = ATCC17978, read-out: MIC of FEP with BLI
[15] = ATCC17978, read-out: MIC of IMI with BLI
[16] = inhibitor at 10 mg/L, PR474, read-out: MIC of CAZ with BLI
[17] = inhibitor at 10 mg/L, PR474, read-out: MIC of CTX with BLI
[18] = inhibitor at 10 mg/L, PR408, read-out: MIC of CAZ with BLI
[19] = inhibitor at 10 mg/L, PR408, read-out: MIC of CTX with BLI
[20] = inhibitor at 10 mg/L, PR378, read-out: MIC of CAZ with BLI
[21] = inhibitor at 10 mg/L, PR378, read-out: MIC of CTX with BLI
[22] = inhibitor at 10 mg/L, PR323, read-out: MIC of CAZ with BLI
[23] = inhibitor at 10 mg/L, PR323, read-out: MIC of CTX with BLI
[24] = inhibitor at 10 mg/L, PR328, read-out: MIC of CAZ with BLI

| Compound | MIC [1, 12] | MIC [1, 13] | MIC [1, 14] | MIC [2, 12] | MIC [2, 13] | MIC [2, 14] | MIC [2, 15] | MIC ([3]; read-out: MIC of IMI with BLI) | MIC [3, 16] | MIC [3, 17] | MIC ([4]; read-out: MIC of CAZ with BLI) | MIC ([4]; read-out: MIC of CTX with BLI) | MIC ([4]; read-out: MIC of IMI with BLI) | MIC ([5]; read-out: MIC of IMI with BLI) | MIC [5, 18] | MIC [5, 19] | MIC [6, 20] | MIC [6, 21] | MIC ([7]; read-out: MIC of CAZ with BLI) | MIC ([7]; read-out: MIC of CTX with BLI) | also measured |
| --- | --- | --- | --- | --- | --- | --- | --- | --- | --- | --- | --- | --- | --- | --- | --- | --- | --- | --- | --- | --- | --- |
| O=C(O)c1cccc(CS(=O)(=O)NCB(O)O)c1 [CR167] | 32 µg/mL | 16 µg/mL | 4 µg/mL | 8 µg/mL | 16 µg/mL | 32 µg/mL | 128 µg/mL | 128 µg/mL | 4100 µg/mL | 2050 µg/mL | 1020 µg/mL | 256 µg/mL | 64 µg/mL | 128 µg/mL | 512 µg/mL | 1020 µg/mL | 32 µg/mL | 64 µg/mL | 64 µg/mL | 256 µg/mL | MIC ([6]; read-out: MIC of IMI with BLI): 128 µg/mL; MIC ([7]; read-out: MIC of IMI with BLI): 64 µg/mL; MIC ([8]; read-out: MIC of IMI with BLI): 128 µg/mL; MIC [8, 22]: 4100 µg/mL; MIC [8, 23]: 2050 µg/mL; MIC ([9]; read-out: MIC of CTX with BLI): 128 µg/mL; MIC ([9]; read-out: MIC of IMI with BLI): 128 µg/mL; MIC [9, 24]: 1020 µg/mL; MIC ([10]; read-out: MIC of CAZ with BLI): 64 µg/mL; MIC ([10]; read-out: MIC of CTX with BLI): 2 µg/mL; MIC ([11]; read-out: MIC of CAZ with BLI): 4 µg/mL; MIC ([11]; read-out: MIC of CTX with BLI): 2 µg/mL; MIC ([11]; read-out: MIC of FEP with BLI): 0.12 µg/mL |
| C[C@@H](NS(=O)(=O)Cc1cccc(C(=O)O)c1)B(O)O [6b] | 64 µg/mL | 32 µg/mL | 4 µg/mL | 8 µg/mL | 16 µg/mL | 32 µg/mL | 128 µg/mL | 128 µg/mL | 4100 µg/mL | 2050 µg/mL | 2050 µg/mL | 512 µg/mL | 64 µg/mL | 128 µg/mL | 512 µg/mL | 1020 µg/mL | 32 µg/mL | 64 µg/mL | 256 µg/mL | 512 µg/mL | MIC ([6]; inhibitor at 10 mg/L, PR378, read-out: MIC of IMI with BLI): 256 µg/mL; MIC ([7]; read-out: MIC of IMI with BLI): 64 µg/mL; MIC ([8]; read-out: MIC of IMI with BLI): 128 µg/mL; MIC [8, 22]: 4100 µg/mL; MIC [8, 23]: 2050 µg/mL; MIC ([9]; read-out: MIC of IMI with BLI): 128 µg/mL; MIC [9, 24]: 2050 µg/mL; MIC ([9]; inhibitor at 10 mg/L, PR328, read-out: MIC of CTX with BLI): 256 µg/mL; MIC ([10]; read-out: MIC of CAZ with BLI): 64 µg/mL; MIC ([10]; read-out: MIC of CTX with BLI): 4 µg/mL; MIC ([11]; read-out: MIC of CAZ with BLI): 4 µg/mL; MIC ([11]; read-out: MIC of CTX with BLI): 2 µg/mL; MIC ([11]; read-out: MIC of FEP with BLI): 0.12 µg/mL |
